Assay results: patent US7288653B2, “Inhibitors of proton-gated cation channels and their use in the treatment of ischaemic disorders” (PainCeptor Pharma Corporation, priority 1999, dated 2007)
Like-named read-outs stand apart in the source and are kept apart here.

What was measured:
[1] = target: T1, naturally occurring proton-gated cation channel in a HEK293 cell (Homo sapiens, UniProt P78348); assay: Patch clamp of whole cell currents elicited by a drop in extracellular pH in HEK293 cells; assay type: cell-based; details: read-out: IC50, inhibition of the proton activated response
T1 construct: a naturally occurring proton-gated cation channel in a HEK293 cell; endogenous in cells; host or cells: HEK293
T1 sequence (P78348 1-528): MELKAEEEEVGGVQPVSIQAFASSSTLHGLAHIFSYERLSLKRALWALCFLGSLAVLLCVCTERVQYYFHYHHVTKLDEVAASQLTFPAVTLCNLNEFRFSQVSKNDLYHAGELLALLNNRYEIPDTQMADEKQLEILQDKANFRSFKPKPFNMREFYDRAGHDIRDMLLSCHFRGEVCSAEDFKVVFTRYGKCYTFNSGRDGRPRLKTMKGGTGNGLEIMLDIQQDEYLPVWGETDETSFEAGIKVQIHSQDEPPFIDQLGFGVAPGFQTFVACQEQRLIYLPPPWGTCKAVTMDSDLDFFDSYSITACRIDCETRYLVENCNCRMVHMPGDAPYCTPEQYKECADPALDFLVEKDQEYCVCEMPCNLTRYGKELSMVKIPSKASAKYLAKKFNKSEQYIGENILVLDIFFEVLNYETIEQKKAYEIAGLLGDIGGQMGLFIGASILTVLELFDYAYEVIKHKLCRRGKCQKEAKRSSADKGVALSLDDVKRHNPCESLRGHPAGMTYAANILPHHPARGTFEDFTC
Method: In this example the current flux induced by protons over the membrane of a naturally occurring proton-gated cation channel in a HEK293 cell was determined using patch clamp techniques.
Using this technique, the effects of the compounds for use according to the invention was investigated on whole cell currents elicited by a drop in extracellular pH from 7.4 to 6.5.

[2] = test system: proton-gated cation channels in cultured mouse cortical neurons; assay: Whole cell patch clamp of proton-gated currents in cultured mouse cortical neurons; assay type: cell-based
Method: The following experiments were performed in voltage-or current clamp using conventional whole cell patch clamp methods [Hamill O P, Marty A, Neher E, Sakmann B and Sigworth F J: Improved patch-clamp techniques for high-resolution current recording from cells and cell-free membrane patches; Pflügers Arch. 1981 39 85-100]. The following salt solutions were used (where nothing else stated, the chemicals are available from Sigma): NaCl (140 mM), KCl (4 mM), CaCl2 (2 mM), MgCl2 (1 mM), Sucrose (30 mM; Available from Fluka Chemie, Buchs, Switzerland), HEPES (10 mM, pH 6-7.4). Solutions with pH<6 were buffered with MES (10 mM) in stead of HEPES. Solutions with no added Ca^2+ contained 3 mM MgCl2. Solutions with no added Na^+ contained 140 mM N-methyl-D-glucamine. For voltage clamp experiments, the extracellular solutions were added Tetrodotoxin (0.0003 mM; Available from Alomone Labs, Jerusalem, Israel) and Bicuculline Methiodide (0.005 mM; Available from RBI, MA, USA).
Intracellular solution for voltage clamp experiments: CsCl (120 mM), CsF (20 mM), MgCl2 (2 mM), EGTA (10 mM), HEPES (10 mM; pH=7.2). […]
For voltage clamp experiments, the cells were held at a holding voltage of −60 mV and at the start of each experiment the current was continuously measured for at least 30 sec. to ensure a stable leak current. […]

[3] = extracellular pH drop from 7.4 to 6.5, group IC50 below 1 μM (of from 100 nM to 1 μM)
[4] = extracellular pH drop from 7.4 to 6.5, group IC50 below 10 μM (of from 1 μM to 10 μM)

| IC50 [1, 3] [µM] | melting point | SMILES | other results |
| --- | --- | --- | --- |
| < 1 | 160 °C (dec.) | O=C1Nc2c(cc(-c3ccccc3)c3c2CN(Cc2ccccc2)CC3)C1=NO [8-benzyl-5-phenyl-6-7-8-9-tetrahydro-1H-pyrrolo-[3,2-h]-isoquinoline-2,3-dione-3-oxim] | – |
| – | – | N=C(N)NC(=O)c1nc(Cl)c(N)nc1N [Amiloride, N-amidino-3,5-diamino-6-chloropyrazine-2-carboxamide] | Effect on proton-gated currents ([2]; 100 μM Amiloride, saline at pH 6, voltage clamp −60 mV): inhibited; IC50 ([2]; cultured mouse cortical neuron, voltage clamp −60 mV, saline at pH 6, Hill equation fit, read-out: IC50, inhibition of proton-gated currents): 6.2 µM |
| – | 170 °C (dec.) | C#CCN1CCc2c(-c3ccccc3)cc3c(c2C1)NC(=O)C3=NO [8-(2-propynyl)-5-phenyl-6,7,8,9-tetrahydro-1H-pyrrolo-[3,2-h]-isoquinoline-2,3-dione-3-oxime] | IC50 [1, 4]: 1 to 10 µM |
| < 1 | – | O=C1Nc2c(cc(-c3ccccc3)c3c2CNCC3)C1=NO [5-phenyl-6-7-8-9-tetrahydro-1H-pyrrolo-[3,2-h]-isoquinoline-2,3-dione-3-oxim] | – |
| < 1 | 170 °C (dec.) | O=C1Nc2c(cc(-c3ccccc3)c3c2CN(CC2CC2)CC3)C1=NO [8-cyclopropylmethyl-5-phenyl-6,7,8,9-tetrahydro-1H-pyrrolo-[3,2-h]-isoquinoline-2,3-dione-3-oxime] | – |
| – | – | CN1CCc2c(-c3ccc([N+](=O)[O-])cc3)cc3c(c2C1)NC(=O)/C3=N\O [8-methyl-5-(4-nitrophenyl)-6,7,8,9-tetrahydro-1H-pyrrolo-[3,2-h]-isoquinoline-2,3-dione-3-oxim] | IC50 [1, 4]: 1 to 10 µM |
| < 1 | – | CN1CCc2c(-c3ccccc3)cc3c(c2C1)NC(=O)C3=NOC(=O)C(C)(C)C [8-methyl-5-phenyl-6-7-8-9-tetrahydro-1-H-pyrrolo-[3.2-h]-isoquinoline-2,3-dione-3-O-2,2-dimethylpropanoyl-oxim] | – |
| – | – | CN1Cc2c(-c3cccc4ccccc34)cc3c(c2C1)NC(=O)C3=NO [7-methyl-5-(1-naphthyl)-1-6-7-8-tetrahydrobenzo-[2,1-b:3,4-c]-dipyrrole-2,3-dione-3-oxime] | IC50 ([1]; extracellular pH drop from 7.4 to 6.5, group IC50 below 100 nM): < 0.1 µM |
| < 1 | – | COc1ccccc1-c1cc2c(c3c1CCN(C)C3)NC(=O)/C2=N\O [8-methyl-5-(2-methoxyphenyl)-6-7-8-9-tetrahydro-1-H-pyrrolo-[3.2-h]-isoquinoline-2,3-dione-3-oxim] | – |
